The values that follow come from US7022315B2, “Administration of a thiol-based chemoprotectant compound” (Oregon Health & Science University, priority 2000, dated 2006).

Series [1] concerns B.5 LX-1 cells. Put plainly: cells. Particulars: for EC50: Homo sapiens. The protocol: FIGS. 4A and 4B show cytoenhancement and chemoprotection. […] Cytotoxicity was assessed in cultured LX-1 SCLC cells, 1×10^4 cells per well in 96 well plates, using the WST colorometric assay. BSO cytoenhancement consisted of preincubation at 100 μM BSO for 18 hours. The chemoprotective agent was added immediately after chemotherapy. The experimental conditions were dose/responses for chemotherapy (carboplatin or etoposide phosphate) alone (m), BSO cytoenhancement ( ? ), N-acetylcysteine rescue, (1000 μg/ml N-acetylcysteine, n), or BSO cytoenhancement and N-acetylcysteine rescue (u). Data are expressed as the percentage of live cells compared to untreated control samples without chemotherapy and each point represents the mean±standard deviation of 4 wells.
The effects of BSO cytoenhancement and thiol chemoprotection on the dose/response relationships for cytotoxicity of the alkylating chemotherapeutics were evaluated in the B.5 LX-1 cells. BSO cytoenhancement consisted of preincubation with 100 μM BSO for about 18–24 hours prior to addition of chemotherapy, and rescue consisted of 1000–2000 μg/ml of thiol chemoprotectant added immediately after chemotherapy.
Cytoenhancement and chemoprotection against non-alkylating chemotherapeutic agents was also evaluated.
Half-maximal cytotoxic concentrations (EC50) are expressed as μg/ml. Each EC50 measurement comprised 6 concentrations with 4 wells per concentration, and each dose response was performed in triplicate for each chemotherapeutic agent. Data are reported as the mean±pooled standard deviation for three independent experiments. P values are shown for the reduction in EC50 by BSO treatment (*=P<0.05, **=P<0.01, ***=P<0.001).

The conditions of series [2]: cited from earlier work.
The test system of series [3] is LX-1 SCLC cells. Put plainly: cells. The note with it: for EC50 / Chemoprotective agent EC50: average ± pooled sd of two experiments. The protocol: Cytotoxicity was assessed in cultured LX-1 SCLC cells, 1×10^4 cells per well in 96 well plates, using the WST colorometric assay. […] Chemoprotectant was added at the indicated concentration of N-acetylcysteine shown in FIG. 3A or D-methionine shown in FIG. 3B either alone (n) or immediately following chemotherapy. Data are expressed as the percentage of live cells compared to untreated control samples (without chemotherapy) and each point represents the mean±standard deviation of 4 wells.
The dose/response for rescue from chemotherapy cytotoxicity was evaluated for four different small molecular weight sulfur containing chemoprotectants.
Chemotherapy agents were fixed at the 90% lethal dose for each agent. Each EC50 measurement comprised 6 concentrations with 4 wells per concentration, and each dose response was performed twice for each protectant. EC50 concentrations, in μg/ml are reported as the average±pooled standard deviation for two independent experiments.

In series [4] the test system is LX-1 SCLC cells. The protocol:
Chemotherapy cytotoxicity was assessed in cultured LX-1 SCLC cells (1×10^4 cells/well in 96 well plates) using the WST colorometric assay. […] Cells then received either no protectant (open bars), or sodium thiosulfate, 2000 μg/ml, added immediately (striped bars), 2 hours (black bars) or 4 hours (cross hatched bars) after chemotherapy. Data are expressed as the percentage of live cells compared to control samples (without chemotherapy) and each point represents the mean±standard deviation of 4 wells.
The thiol chemoprotectants were added either concurrently with chemotherapy or up to 8 hours after chemotherapy.

The next series relates to rats. Put plainly: Protection against chemotherapy-induced myelosuppression, nadir blood counts. The series is classed as in vivo, rat. The note with it: STS alone; data not shown. The protocol:
FIGS. 10A–10D show the results of tests on chemoprotection for chemotherapy-induced myelosuppression. Rats received tri-drug chemotherapy (Carboplatin 200 mg/m2, etoposide phosphate 100 mg/m2, melphalan 10 mg/m2), with (triangles, squares) or without (circles) chemoprotection. Blood counts were determined prior to chemotherapy, at the blood nadir (6 days), and in the recovery phase (9 days after treatment). Chemoprotection was with NAC (1200 mg/kg) administered via aortic infusion 30 min prior to chemotherapy (triangles) or NAC prior to chemotherapy and STS (8 g/m2) immediately after chemotherapy (squares). In FIG. 10B and FIG. 10D animals received BSO (10 mg/kg i.p.×3 d) prior to treatment with chemotherapy. […] Significant difference from the no protectant groups were determined by Wilcoxon/Kruskal-Walliis rank sums tests (*p<0.05, **p<0.01).
Chemoprotection against chemotherapy-induced bone marrow toxicity was determined in BSO treated and untreated animals given i.a. carboplatin, etoposide phosphate, and melphalan. NAC with or without STS was administered either about 30 minutes prior to chemotherapy or immediately after chemotherapy, and was administered either i.v. or by aortic infusion.

In another series the test system is cultured tumor cells. Briefly: Paclitaxel cytotoxicity with BSO and NAC (WST). Format: cell-based.
In series [5] the test system is Caspase-2 activity in B.5 LX-1 cells. Briefly: Caspase-2 enzymatic activity (apoptosis). The series is classed as cell-based. The note with it: for increase in caspase activity: variable between experiments. The protocol: (§1) FIGS. 7A and 7B show the effect of cytoenhancement and chemoprotection on apoptosis. […] Apoptosis was assessed in cultured LX-1 SCLC cells pretreated for 18 hours with or without 100 μM BSO. The experimental conditions were no addition (open bars), melphalan (10 μg/ml, striped bars) or melphalan (10 μg/ml) plus N-acetylcysteine (1000 μg/ml) (cross hatched bars) for 20 h prior to harvest. Caspase-2 activity is expressed as percentage activity in untreated control samples (mean±standard deviation, n=3). TUNEL staining is expressed as the percentage of cells showing positive staining.
(§2) Apoptosis was evaluated by measuring Caspase-2 enzymatic activity and by in situ TUNEL staining. […] The increase in caspase activity was variable between experiments and ranged from 50–100% at 7–8 h to 250–600% at 20–24 h after treatment with melphalan. […] In the experiment shown in FIG. 7B, TUNEL staining after melphalan treatment was positive in 29 of 3643 cells, compared to 7 of 4395 cells in the untreated control, and BSO treatment prior to melphalan increased the positive staining to 800 of 1699 cells. […] In both assays, activity was maximal with low doses of melphalan, or with a 1 hour pulse treatment with the doses used in the cytotoxicity assays.
Samples of the cells used in the caspase and TUNEL assays were also evaluated for membrane permeability by trypan blue exclusion.

Another series concerns GM294 human fibroblasts. Briefly: Cytoenhancement and chemoprotection in fibroblasts, WST assay. Format: cell-based. The protocol:
Cytotoxicity was assessed in GM294 human fibroblasts, 1×10^4 cells per well in 96 well plates, using the WST colorometric assay. […] Data are expressed as the percentage of live cells compared to control samples (without chemotherapy) and each point represents the mean±s.d. of 4 wells.

Series [6] has as its system B.5 LX-1 cells. Put plainly: In situ TUNEL staining for DNA fragmentation. Format: cell-based. The protocol:
as §1, §2

The mark [7] stands for this setting: read-out: Chemoprotective agent EC50, protection against carboplatin 200 μg/ml (about 90% lethal dose).
Setting [8] is: read-out: Chemoprotective agent EC50, protection against cisplatin 15 μg/ml (about 90% lethal dose).

In brackets after ≈: the same amount, converted by molar mass. Where two headings read alike, the source gives them in different places.

Take `N.N.O=C([O-])C1(C(=O)[O-])CCC1.[Pt+2]` [Carboplatin, carboplatin]: the “reduction of EC50 for cytotoxicity by BSO” value in the series with B.5 LX-1 cells [1] (100 μM BSO preincubation) turned out to be 48%. Also, in the series on B.5 LX-1 cells [1] (Without BSO, mean ± pooled sd of three experiments), the “Chemotherapy EC50 (cytotoxicity)” value was determined as 103 ± 21 µg/mL.
With `O=S(O)(O)=S` [STS, sodium thiosulfate], the plasma half life entry in [2] (after a bolus injection) was “about 17 minutes”. Also, the brain levels in [2] (i.v. administration) was < 5 % of blood. The EC50 stood at 442 ± 203 µg/mL in the series with LX-1 SCLC cells [3] (setting [7]); 86 ± 76 µg/mL in the series on LX-1 SCLC cells [3] (setting [8]); 110 ± 78 µg/mL in the series on LX-1 SCLC cells [3] (read-out: Chemoprotective agent EC50, protection against melphalan 20 μg/ml (about 90% lethal dose)). The “protection against melphalan cytotoxicity with delayed addition” value in the series with LX-1 SCLC cells [4] (melphalan 20 μg/ml, protectant delayed (2 hours for STS)) is “chemoprotection was reduced”. Further, the “protection against platinum (carboplatin, cisplatin) cytotoxicity with delayed addition” value with LX-1 SCLC cells [4] (protectant delayed (up to 4 hours for STS)) is on record as “still protective”. Further, the bone marrow protection result in the series on rats is “did not give consistent bone marrow protection”.
In the case of `CC(=O)O[C@H]1C(=O)[C@@]2(C)[C@H]([C@H](OC(=O)c3ccccc3)[C@]3(O)C[C@H](OC(=O)[C@H](O)[C@@H](NC(=O)c4ccccc4)c4ccccc4)C(C)=C1C3(C)C)[C@]1(OC(C)=O)CO[C@@H]1C[C@@H]2O` [paclitaxel], the growth inhibitory dose entry in the series with B.5 LX-1 cells [1] (not altered by BSO) is “approximately 10 nM”. In addition, the “dose completely cytotoxic in vitro” value with cultured tumor cells (cells pretreated with BSO) was ≥ 5 µM. Moreover, the “live cells (WST fluorescence)” value in the series on cultured tumor cells (paclitaxel dose 5 (unit not given)) was 1.274 +/− .071. Also, the “live cells (WST fluorescence)” value in the series on cultured tumor cells (paclitaxel dose 20 (unit not given)) was 0.771 +/− .056. Also, in the series on cultured tumor cells (without BSO), the “concentration at which it begins to be cytotoxic” value turned out to be 20 µM and the “concentration at which it is completely toxic” value was found to be 30 µM.
Regarding `CCCCS(=N)(=O)CCC(N)C(=O)O` (stereo not drawn) [BSO, buthionine sulfoximine], the “effect on cisplatin- or carboplatin-induced caspase activity” value in [5] is on record as “No significant amplification of caspase activity”. In series [5] (BSO pretreatment, low melphalan concentrations), the “effect on melphalan-induced Caspase-2 activity” value is recorded as “amplified”. Further, the “effect on toxicity of melphalan, cisplatin and carboplatin” value with GM294 human fibroblasts (100 μM for 18 hours pretreatment) is recorded as “enhanced the toxicity of all three alkylators”.
For `CSCC[C@@H](N)C(=O)O` [D-methionine], the EC50 was found to be 379 ± 123 µg/mL (≈ 2540 µM) in the series with LX-1 SCLC cells [3] (setting [7]) and 140 ± 41 µg/mL (≈ 938 µM) with LX-1 SCLC cells [3] (setting [8]). In addition, the “reduction of protection against cisplatin compared to simultaneous addition” value in the series on LX-1 SCLC cells [4] (delayed for 2 hours after cisplatin) was determined as 41.2±10.2%; in the series on LX-1 SCLC cells [4] (delayed to 4 hours after cisplatin), 66.1±4.5%. Besides, the “protection against cisplatin compared to simultaneous addition” value in the series with LX-1 SCLC cells [4] (pretreatment for 30 min prior to cisplatin) is “did not increase the amount of protection”.
For the molecule `CN(Cc1cnc2nc(N)nc(N)c2n1)c1ccc(C(=O)N[C@@H](CCC(=O)O)C(=O)O)cc1` [methotrexate], the “BSO enhancement or N-acetylcysteine protection of the agent's cytotoxicity” value with B.5 LX-1 cells [1] is “no enhancement or protection”.
In the case of `CCOC(=O)CNC(=O)[C@H](CS)NC(=O)CC[C@H](N)C(=O)O` [Glutathione ethyl ester], the “relative effectiveness among the thiol agents tested” value in the series on LX-1 SCLC cells [3] (on a μg/ml basis) is on record as “least effective”. The “Chemoprotective agent EC50” value in the series on LX-1 SCLC cells [3] (protection against carboplatin 200 μg/ml (about 90% lethal dose)) was found to be 995 ± 48 µg/mL; in the series with LX-1 SCLC cells [3] (protection against cisplatin 15 μg/ml (about 90% lethal dose)), 530 ± 30 µg/mL; with LX-1 SCLC cells [3] (protection against melphalan 20 μg/ml (about 90% lethal dose)) it was 303 ± 124 µg/mL.
With `N[C@@H](Cc1ccc(N(CCCl)CCCl)cc1)C(=O)O` [Melphalan, melphalan], the entries for the “increase in caspase activity” value in series [5] (7–8 h after treatment) and in series [5] (20–24 h after treatment) were 50–100% and 250–600%, respectively. Further, the “reduction of EC50 for cytotoxicity by BSO” value in the series on B.5 LX-1 cells [1] came out at 53%. Also, the EC50 in the series on B.5 LX-1 cells [1] (LX-1, read-out: Chemotherapy EC50 (cytotoxicity), + BSO (100 μM preincubation 18–24 hours), mean ± pooled sd of three experiments) is 6.4 ± 0.6 µg/mL; with B.5 LX-1 cells [1] (LX-1, read-out: Chemotherapy EC50 (cytotoxicity), Without BSO, mean ± pooled sd of three experiments), 13.8 ± 1.8 µg/mL (≈ 45.2 µM). For the same molecule, the results for the “TUNEL staining positive cells” value in the series with B.5 LX-1 cells [6] (BSO treatment prior to melphalan) and with B.5 LX-1 cells [6] (melphalan treatment without BSO) were 800 of 1699 and 29 of 3643, respectively.
`COc1cc([C@@H]2c3cc4c(cc3[C@@H](O[C@@H]3O[C@@H]5CO[C@@H](C)O[C@H]5[C@H](O)[C@H]3O)[C@H]3COC(=O)[C@H]23)OCO4)cc(OC)c1OP(=O)(O)O` [etoposide phosphate]: the “effect of BSO and N-acetylcysteine on the agent's cytotoxicity” value in the series with GM294 human fibroblasts is listed as “neither BSO cytoenhancement nor N-acetylcysteine chemoprotection affected the cytotoxicity”. Further, the “BSO enhancement or N-acetylcysteine protection of the agent's cytotoxicity” value with B.5 LX-1 cells [1] is on record as “BSO did not increase the cytotoxicity of etoposide phosphate, nor did N-acetylcysteine decrease the cytotoxicity”.
On to `COc1cccc2c1C(=O)c1c(O)c3c(c(O)c1C2=O)C[C@@](O)(C(=O)CO)C[C@@H]3O[C@H]1C[C@H](N)[C@H](O)[C@H](C)O1` [doxorubicin], for which the “BSO enhancement or N-acetylcysteine protection of the agent's cytotoxicity” value in the series with B.5 LX-1 cells [1] was “no enhancement or protection”.
